Experimental data from US20120045816A1, “Novel Glycosylated Polypeptides” (Sialix, Inc., priority 2008, published 2012).

Key:
CHO cells = test: Reduction of Neu5Gc contamination in CHO cells by feeding Neu5Ac; assay type: cell-based, Chinese Hamster; details: 5 mM Neu5Ac in medium; DMB-HPLC and Western blot; FIG. 3C-E
Protocol: Reduction of Neu5Gc Contamination in Glycosylated polypeptides in CHO Cells. A similar approach was taken to CHO cells stably expressing a Siglec-Fc protein in the medium, except that the Neu5Gc pulse was omitted, and the secreted glycoproteins were captured on Protein-A Sepharose beads. The cells were also processed similarly, except that total cell membranes were pelleted by centrifugation. The Sias content of the secreted proteins and cell membranes was determined by acid hydrolysis, DMB derivatization and HPLC. The cell membranes were also studied for NueSGc content by Western-blotting with the chicken anti-Neu5Gc IgY, as described above.
Free Neu5Ac in Non-Human CHO Cell Culture Medium Reduces Neu5Gc Contamination. However, many recombinant glycosylated polypeptides are currently produced in non-human cells, e.g., Chinese Hamster Ovary (CHO) cell lines. Glycosylated polypeptide produced in CHO cells carry small amounts of Neu5Gc^19,5. […] The individually collected media was centrifuged to remove cell debris and adjusted to 5 mM Tris-HCl pH 8. The fusion protein was purified using Protein-A Sepharose. Sialic acid content was determined by DMB-HPLC analysis (FIG. 3C). The area under each peak was obtained and the percent of Neu5Gc in each sample was determined relative to Neu5Ac. Total cell membranes from the same CHO cells were prepared and used for DMB-HPLC analysis (FIG. 3D). […]

Human 293T cells = test: Reduction of Neu5Gc contamination in 293T human kidney cells by Neu5Ac chase; assay type: cell-based; details: 5 mM Neu5Ac chase after 5 mM Neu5Gc for 3 days; HPLC; FIG. 3A-B
Protocol: Reduction of Neu5Gc Contamination in Glycosylated Polypeptides in 293T Human Kidney Cells. 293T human kidney cells were grown in DME supplemented with 10% FCS. Cells were lifted from culture plate using 20 mM EDTA in PBS and allowed to grow to 50% confluence. Buffered 100 mM Neu5Gc was added to the culture in duplicate at a final 5 mM concentration, and the cells were grown in this supplemented media for 3 days. At the end of this Neu5Gc pulse, the cells were once again lifted using 20 mM EDTA in PBS, pelleted, washed once with PBS to remove any excess Neu5Gc and then suspended in 30 ml of growth medium. Five ml of this cell suspension was added to each of […]. The last aliquot of cell suspension, time “0”, was immediately harvested by pelleting the cells, washing once with PBS, followed by suspending the cells in 1 ml of PBS and transferring to a 1.5 ml microcentrifuge tube. The cells were re-pelleted and frozen until all time points were collected. […]
Free Neu5Ac in Human 293T Cell Culture Medium Reduces Neu5Gc Contamination. […] Cells were harvested as described above, and the Neu5Gc and Neu5Ac content of both the ethanol soluble (FIG. 3A) and ethanol precipitable proteins (FIG. 3B) was analyzed by HPLC. […]

[1] = test system: anti-Neu5Gc antibodies from whole human sera; test: Direct binding of anti-Neu5Gc antibodies from whole human sera to Fab fragments (ELISA); details: serum S34; Fab fragments 1 μg/well; FIG. 2C
Protocol: Direct binding of anti-Neu5Gc antibodies from whole human sera to the glycosylated polypeptides, Cet and Pan, was evaluated. […] Fab fragments (1 μg/well) were used as target molecules in ELISA. Sialic acid specific binding was determined with sodium metaperiodate treatment. Wells were then blocked and incubated with human sera (S30 and S34 with low and high anti-Neu5Gc IgG titers, respectively, from Ref. 7).

[2] = test system: affinity-purified chicken anti-Neu5Gc IgY; test: ELISA detection of Neu5Gc on Cetuximab and Panitumumab; assay type: binding; details: 1 μg antibody per well; FIG. 1A
Description: Sialidase Treatment of Cet and Pan. […] Samples were used for ELISA or Western Blots.
ELISA samples were studied at least in triplicate. […] Samples were studied in triplicate.
ELISA We first did ELISA assays using an affinity-purified polyclonal chicken anti-Neu5Gc antibody preparation that is highly mono-specific for Neu5Gc^5, alongside a non-reactive control IgY.

[3] = Sialic acid quantity (DMB-HPLC); assay type: physicochemical
Protocol: DMB-HPLC. Samples were subjected to base treatment with 0.1 M NaOH (final) at 37° C. for 30 min to remove O-acetyl esters, and the sialic acids were released by acid hydrolysis with 2 M acetic acid (final), at 80° C. for 3 hours. Samples were passed through Microcon-10 columns (20 min, 10000×g; Millipore), derivatized with 1,2-diamino-4,5-methyl dioxybenzene (DMB), and analyzed by HPLC as described^9 in Hara et al., 1986, J. Chromatography 377:111-119. Measured values of non acid-treated controls (free sialic acids) were subtracted.
(§1) Sialic Acid Quantity. The levels of Sialic acids on the therapeutic antibodies (TAbs) Cet and Pan were determined. […] Cet and Pan (1 μg each) were separated by SDS-PAGE and Coomassie stained or blotted (see FIG. 1B). […] The absorbance was measured at 405 nm.

[4] = test system: anti-Neu5Gc antibodies in human serum; test: CIC-C1q binding assay, immune complex formation in whole human serum; details: 40 μg antibody in 100 μl serum, FIG. 1F
Protocol: CIC-C1q Binding Assay. […] 1:50 dilutions of the mix were applied to human C1 q coated ELISA wells, and incubated for 1 h at 25° C. […] The absorbance was measured at 405 nm. Samples were studied in triplicate.
as §1

CC(=O)N[C@H]1[C@H]([C@H](O)[C@H](O)CO)OC(O)(C(=O)O)C[C@@H]1O (some centres unmarked) [Neu5Ac, N-acetylneuraminic acid]
Effect on Neu5Gc of membrane glycoproteins and a secreted recombinant protein (CHO cells): reduces Neu5Gc in CHO cells
Effect on Neu5Gc content of cells preloaded with Neu5Gc (Human 293T cells): more rapid disappearance of ethanol-precipitable (glycosidically-bound) Neu5Gc

Panitumumab: fully human antibody against the EGF receptor produced in Chinese Hamster Ovary cells
Mild periodate sensitive binding of serum IgG to Fab fragments, high anti-Neu5Gc titer serum [1]: not to those of Panitumumab
Bound Neu5Gc detected by chicken anti-Neu5Gc IgY (ELISA) [2]: not on Panitumumab
Share of Neu5Gc in the Sias [3]: < 0.1%
Sias carried by the antibody [3]: 0.22 mol/mol
Immune complex formation, low titer human serum ([4]; serum S30): no detectable immune complex formation
Immune complex formation, human serum with high levels of anti-Neu5Gc antibodies ([4]; serum S34): no detectable immune complex formation
